The assay addresses T1, Dimer of Gag-Pol polyprotein [489-587,Q496K] (Human immunodeficiency virus 1, UniProt P12497, Q496K).
T1 construct: 489-587
Kind of assay: Protease Inhibition Assay. Conditions: pH 5.5; 30 °C. On the procedure: Assay of HIV protease inhibition was performed by peptide cleavage using the substrate Val-Ser-Gln-Asn-beta-naphthylalanine*Pro-Ile-Val. Products of the cleavage reaction were quantified by HPLC detection, and data were fit to nonlinear least squares equations for determination of steady-state Michaelis-Menten kinetics.

In BindingDB's records for doi:10.1016/j.bmcl.2005.08.072 (Merck Research Laboratories, 2005) one finds IC50 data, which are given here for 2 compounds.

Each structure is given as a SMILES string.

Broadly, the IC50 is the concentration that gives 50% inhibition. A higher IC50 goes with weaker potency in that assay. As to `CC(C)(c1ncc(-c2ccc(Cl)cc2)o1)N1CCN(C[C@@H](O)C[C@@H](Cc2cc3ccncc3s2)C(=O)N[C@H]2c3ccccc3OC[C@H]2O)[C@H](C(=O)NCC(F)(F)F)C1` [(2S)-4-{2-[5-(4-chlorophenyl)-1,3-oxazol-2-yl]propan-2-yl}-1-[(2S,4S)-2-hydroxy-4-{[(3S,4S)-3-hydroxy-3,4-dihydro-2H-1-benzopyran-4-yl]carbamoyl}-4-{thieno[2,3-c]pyridin-2-ylmethyl}butyl]-N-(2,2,2-trifluoroethyl)piperazine-2-carboxamide], the IC50 is under 0.02 nM.

Compound `CC(C)(c1ncc(-c2ccc(Cl)cc2)o1)N1CCN(C[C@@H](O)C[C@@H](Cc2cc3c(Cl)cncc3s2)C(=O)N[C@H]2c3ccccc3OC[C@H]2O)[C@H](C(=O)NCC(F)(F)F)C1` [(2S)-4-{2-[5-(4-chlorophenyl)-1,3-oxazol-2-yl]propan-2-yl}-1-[(2S,4S)-4-({4-chlorothieno[2,3-c]pyridin-2-yl}methyl)-2-hydroxy-4-{[(3S,4S)-3-hydroxy-3,4-dihydro-2H-1-benzopyran-4-yl]carbamoyl}butyl]-N-(2,2,2-trifluoroethyl)piperazine-2-carboxamide] came in with an IC50 of under 0.02 nM.
